Species on record: Rattus norvegicus
Assay: Open TG-GATES - Regimen: Daily Repeat
Assay type: toxicity, organism-based, Sprague-Dawley
Set-up: regimen Daily Repeat, gender Male, age 6 weeks
Conditions: in vivo, po, 10 mg/kg, route gavage, dose level Low; for APTT / Bas / Eos / Fbg / Hb / Ht / Lym / MCH / MCHC / MCV / Mono / Neu / PT / Plat / RBC / Ret / WBC: tissue Blood; for KIDNEY_L / KIDNEY_R / KIDNEY_TOTAL: tissue Kidney; for LIVER: tissue Liver; for A/G / ALP / ALT / AST / BUN / CRE / Ca / Cl / DBIL / GLC / IP / K / LDH / Na / PL / RALB / TBIL / TC / TG / TP / gamma-GTP: tissue Plasma

CCC1(c2ccccc2)C(=O)NC(=O)NC1=O [PHENOBARBITAL]
TERMINAL_BW (72 h, time 3 day): 224.1 g | APTT (72 h, time 3 day): 15.6 s | Bas (72 h, time 3 day): 0% | Eos (72 h, time 3 day): 1% | Fbg (72 h, time 3 day): 226.8 mg/dL | Hb (72 h, time 3 day): 13.3 g/dL | Ht (72 h, time 3 day): 39.6% | Lym (72 h, time 3 day): 71.6% | MCH (72 h, time 3 day): 22 pg | MCHC (72 h, time 3 day): 33.6% | MCV (72 h, time 3 day): 65.5 fL | Mono (72 h, time 3 day): 11.4% | Neu (72 h, time 3 day): 16.4% | PT (72 h, time 3 day): 11.9 s | Plat (72 h, time 3 day): 126.7 x10_4/uL | RBC (72 h, time 3 day): 605.2 x10_4/ul | Ret (72 h, time 3 day): 7.9% | WBC (72 h, time 3 day): 126 x10_2/uL | KIDNEY_L (72 h, time 3 day): 1 g | KIDNEY_R (72 h, time 3 day): 1 g | KIDNEY_TOTAL (72 h, time 3 day): 2 g | LIVER (72 h, time 3 day): 12 g | A/G (72 h, time 3 day): 1.5 | ALP (72 h, time 3 day): 757.2 IU/L | ALT (72 h, time 3 day): 34.6 IU/L | AST (72 h, time 3 day): 61.6 IU/L | BUN (72 h, time 3 day): 15.2 mg/dL | CRE (72 h, time 3 day): 0.5 mg/dL | Ca (72 h, time 3 day): 10.6 mg/dL | Cl (72 h, time 3 day): 106.6 meq/L | DBIL (72 h, time 3 day): 0.018 mg/dL | GLC (72 h, time 3 day): 197.2 mg/dL | IP (72 h, time 3 day): 8.3 mg/dL | K (72 h, time 3 day): 4.8 meq/L | LDH (72 h, time 3 day): 106.8 IU/L | Na (72 h, time 3 day): 139 meq/L | PL (72 h, time 3 day): 147.8 mg/dL | RALB (72 h, time 3 day): 3.5 g/dL | TBIL (72 h, time 3 day): 0.3 mg/dL | TC (72 h, time 3 day): 83.4 mg/dL | TG (72 h, time 3 day): 104.8 mg/dL | TP (72 h, time 3 day): 5.8 g/dL | gamma-GTP (72 h, time 3 day): 1.6 IU/L | TERMINAL_BW ([…], time 7 day): 253.6 g | TERMINAL_BW ([…], time 14 day): 311.1 g | TERMINAL_BW ([…], time 28 day): 391.1 g | APTT ([…], time 7 day): 16.3 s | Bas ([…], time 7 day): 0% | Eos ([…], time 7 day): 1% | Fbg ([…], time 7 day): 236 mg/dL | Hb ([…], time 7 day): 13.8 g/dL | Ht ([…], time 7 day): 41.2% | Lym ([…], time 7 day): 80.6% | MCH ([…], time 7 day): 21.8 pg | MCHC ([…], time 7 day): 33.4% | MCV ([…], time 7 day): 65.2 fL | Mono ([…], time 7 day): 3% | Neu ([…], time 7 day): 15.4% | PT ([…], time 7 day): 11.6 s | Plat ([…], time 7 day): 113.9 x10_4/uL | RBC ([…], time 7 day): 632.6 x10_4/ul | Ret ([…], time 7 day): 6.6% | WBC ([…], time 7 day): 95.6 x10_2/uL | APTT ([…], time 14 day): 16.6 s | Bas ([…], time 14 day): 0% | Eos ([…], time 14 day): 0.2% | Fbg ([…], time 14 day): 234.6 mg/dL | Hb ([…], time 14 day): 15 g/dL | Ht ([…], time 14 day): 45.1% | Lym ([…], time 14 day): 84.6% | MCH ([…], time 14 day): 20.6 pg | MCHC ([…], time 14 day): 33.3% | MCV ([…], time 14 day): 61.7 fL | Mono ([…], time 14 day): 5.8% | Neu ([…], time 14 day): 9.6% | PT ([…], time 14 day): 11.4 s | Plat ([…], time 14 day): 114.1 x10_4/uL | RBC ([…], time 14 day): 731.2 x10_4/ul | Ret ([…], time 14 day): 5% | WBC ([…], time 14 day): 141.4 x10_2/uL | APTT ([…], time 28 day): 17.6 s | Bas ([…], time 28 day): 0% | Eos ([…], time 28 day): 1% | Fbg ([…], time 28 day): 226.6 mg/dL | Hb ([…], time 28 day): 15 g/dL | Ht ([…], time 28 day): 43.9% | Lym ([…], time 28 day): 86.6% | MCH ([…], time 28 day): 20.1 pg | MCHC ([…], time 28 day): 34.1% | MCV ([…], time 28 day): 58.9 fL | Mono ([…], time 28 day): 3.8% | Neu ([…], time 28 day): 8.8% | PT ([…], time 28 day): 12.1 s | Plat ([…], time 28 day): 97.5 x10_4/uL | RBC ([…], time 28 day): 746 x10_4/ul | Ret ([…], time 28 day): 2.9% | WBC ([…], time 28 day): 114.8 x10_2/uL | KIDNEY_L ([…], time 7 day): 1.1 g | KIDNEY_R ([…], time 7 day): 1.1 g | KIDNEY_TOTAL ([…], time 7 day): 2.1 g | KIDNEY_L ([…], time 14 day): 1.2 g | KIDNEY_R ([…], time 14 day): 1.2 g | KIDNEY_TOTAL ([…], time 14 day): 2.3 g | KIDNEY_L ([…], time 28 day): 1.4 g | KIDNEY_R ([…], time 28 day): 1.3 g | KIDNEY_TOTAL ([…], time 28 day): 2.7 g | LIVER ([…], time 7 day): 13.7 g | LIVER ([…], time 14 day): 15.6 g | LIVER ([…], time 28 day): 16.8 g | A/G ([…], time 7 day): 1.5 | ALP ([…], time 7 day): 686.4 IU/L | ALT ([…], time 7 day): 28 IU/L | AST ([…], time 7 day): 57 IU/L | BUN ([…], time 7 day): 18.4 mg/dL | CRE ([…], time 7 day): 0.6 mg/dL | Ca ([…], time 7 day): 10.9 mg/dL | Cl ([…], time 7 day): 105.2 meq/L | DBIL ([…], time 7 day): 0.034 mg/dL | GLC ([…], time 7 day): 210 mg/dL | IP ([…], time 7 day): 8.5 mg/dL | K ([…], time 7 day): 4.7 meq/L | LDH ([…], time 7 day): 86.8 IU/L | Na ([…], time 7 day): 139.6 meq/L | PL ([…], time 7 day): 161.2 mg/dL | RALB ([…], time 7 day): 3.6 g/dL | TBIL ([…], time 7 day): 0.4 mg/dL | TC ([…], time 7 day): 82.4 mg/dL | TG ([…], time 7 day): 129.2 mg/dL | TP ([…], time 7 day): 6 g/dL | gamma-GTP ([…], time 7 day): 1.2 IU/L | A/G ([…], time 14 day): 1.6 | ALP ([…], time 14 day): 858.8 IU/L | ALT ([…], time 14 day): 33.8 IU/L | AST ([…], time 14 day): 63.2 IU/L | BUN ([…], time 14 day): 17.8 mg/dL | CRE ([…], time 14 day): 0.6 mg/dL | Ca ([…], time 14 day): 11.3 mg/dL | Cl ([…], time 14 day): 106 meq/L | DBIL ([…], time 14 day): 0.004 mg/dL | GLC ([…], time 14 day): 193.8 mg/dL | IP ([…], time 14 day): 9.1 mg/dL | K ([…], time 14 day): 4.7 meq/L | LDH ([…], time 14 day): 100 IU/L | Na ([…], time 14 day): 141.6 meq/L | PL ([…], time 14 day): 162.8 mg/dL | RALB ([…], time 14 day): 4 g/dL | TBIL ([…], time 14 day): 0.2 mg/dL | TC ([…], time 14 day): 83.8 mg/dL | TG ([…], time 14 day): 127.6 mg/dL | TP ([…], time 14 day): 6.6 g/dL | gamma-GTP ([…], time 14 day): 1 IU/L | A/G ([…], time 28 day): 1.6 | ALP ([…], time 28 day): 707.4 IU/L | ALT ([…], time 28 day): 29.6 IU/L | AST ([…], time 28 day): 56.2 IU/L | BUN ([…], time 28 day): 21.6 mg/dL | CRE ([…], time 28 day): 0.3 mg/dL | Ca ([…], time 28 day): 10.3 mg/dL | Cl ([…], time 28 day): 108.4 meq/L | DBIL ([…], time 28 day): 0.026 mg/dL | GLC ([…], time 28 day): 195.8 mg/dL | IP ([…], time 28 day): 7.4 mg/dL | K ([…], time 28 day): 5 meq/L | LDH ([…], time 28 day): 84.2 IU/L | Na ([…], time 28 day): 139.8 meq/L | PL ([…], time 28 day): 148 mg/dL | RALB ([…], time 28 day): 3.9 g/dL | TBIL ([…], time 28 day): 0.4 mg/dL | TC ([…], time 28 day): 69.6 mg/dL | TG ([…], time 28 day): 164.4 mg/dL | TP ([…], time 28 day): 6.3 g/dL | gamma-GTP ([…], time 28 day): 1.4 IU/L
